According to article PMC3781034, “A Small-Animal Pharmacokinetic/Pharmacodynamic PET Study of Central Serotonin 1A Receptor Occupancy by a Potential Therapeutic Agent for Overactive Bladder” (PLoS ONE, 2013):
pEC50: −log10 of the molar value. Where two headings read alike, the source gives them in different places.

What was measured:
[1] = test system: 5-HT1A receptors; experiment: Effect compartment model simulation of 5-HT1A RO in female rats; design: species or system female SD rats; conditions: for simulated 5-HT1A RO: DRN
From the text: The effect compartment model is illustrated in Figure 2. The mean plasma concentration profile of E2110 in each of four rats was fitted by two-compartment model with first order absorption and elimination. A sigmoid Emax model (Equation 4) based on the concentration in the effect compartment was fitted to the PD (RO) data. PK and PD models were linked using an effect compartment model described by the following equation: […]
where Cp and Ce are concentrations of E2110 in the plasma and effect compartments, respectively, and ke0 represents the equilibration rate constant for the effect compartment. PK and PD parameters were estimated by using […] (Version 2.01, MicroMath Research, UT, USA).

[2] = test system: 5-HT1A receptors; experiment: [35S]guanosine-5'-O-(3-thio)-triphosphate binding studies; type: biochemical; conditions: stated in introduction, no data shown
[3] = test system: micturition interval; experiment: 5-HT1A receptor agonist (8-OH-DPAT)-induced model of OAB, cystometry; type: in vivo, female SD rats
Protocol: Catheter implantations and cystometric investigations were performed based on the reported method [14]. Briefly, on the day before the cystometric experiment, female SD rats were initially anesthetized with pentobarbital (50 mg/kg ip). Catheters were inserted into the femoral vein, the dome of the stomach and the dome of the bladder. In the cystometric study, the bladder catheter was connected to an infusion pump and a pressure transducer (DX-312; Nihon Kohden Co., Tokyo, Japan) by three-way stopcock. Saline was infused into the bladder and femoral vein. After bladder pressure was stabilized, 8-OH-DPAT (0.06 mg/kg/h) was infused into the femoral vein instead of saline. Bladder pressure was monitored with a pressure transducer and a pressure amplifier (AP-601G; Nihon Kohden), and recorded on a pen recorder (WT-645G; Nihon Kohden). The following three micturition intervals (i.e., intervals between consecutive peaks of bladder pressure induced at the time of bladder content evacuation) were obtained: (1) basal micturition interval (intervals before 8-OH-DPAT administration), (2) pre-administration micturition interval, (intervals immediately before administration of E2110 or vehicle), and (3) post-administration micturition interval (intervals observed between 1 and 2 hr after administration of E2110 or vehicle). […] E2110 (0.03, 0.1 or 0.3 mg/kg) or vehicle was administered to four groups of eight conscious rats orally.
Data are expressed as mean ± standard error of mean (S.E.M). In the pharmacological study, the statistical significance of differences between the vehicle- and E2110-treated groups was tested using one-way analysis of variance (ANOVA) followed by Dunnett’s multiple comparison test. A probability (p) value of <0.05 (two-sided) was considered statistically significant. All statistical analyses were performed using the SAS software package version 8.1 or 8.2 (SAS Institute Japan Ltd., Tokyo, Japan).

[4] = target: T1, 5-HT1A receptors (Rattus norvegicus, UniProt P19327); experiment: PET 5-HT1A receptor occupancy, dose-response study ([11C]WAY-100635, Emax model); type: in vivo, Sprague-Dawley rat; conditions: for pEC50: free CNS concentration assumed one-tenth of free plasma, read-out: in vivo EC50 corrected for the difference in free drug concentrations between plasma and CNS
T1 construct: occupancy of 5-HT1A receptors in living Sprague-Dawley rat brains; from tissue; host or cells: living Sprague-Dawley rat brain (medial prefrontal cortex, dorsal raphe nucleus), in vivo PET
T1 sequence (P19327 1-422): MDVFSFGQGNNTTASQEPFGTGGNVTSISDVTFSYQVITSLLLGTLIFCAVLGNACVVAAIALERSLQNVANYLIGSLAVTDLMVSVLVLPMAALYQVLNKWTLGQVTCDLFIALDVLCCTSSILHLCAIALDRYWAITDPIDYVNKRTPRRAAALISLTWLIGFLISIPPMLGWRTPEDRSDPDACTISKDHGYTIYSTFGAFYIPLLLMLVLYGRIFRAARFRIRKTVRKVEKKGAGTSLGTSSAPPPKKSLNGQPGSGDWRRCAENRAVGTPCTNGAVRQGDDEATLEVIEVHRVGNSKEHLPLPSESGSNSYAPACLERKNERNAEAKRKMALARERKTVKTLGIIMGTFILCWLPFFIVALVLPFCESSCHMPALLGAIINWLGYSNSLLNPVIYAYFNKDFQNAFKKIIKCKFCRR
Protocol: All PET scans for rats were performed with a small animal-dedicated microPET FOCUS 220 system (Siemens Medical Solutions USA, Knoxville, TN, USA), which yields a 25.8 cm (transaxial) × 7.6 cm (axial) field of view (FOV) and a spatial resolution of 1.3 mm full width at half maximum at the center of FOV [8]. The rats were anesthetized with 1.5-2% isoflurane in air (2 L/min flow rate). Their body temperature was controlled using homeothermic controller and plate with a rectal probe, and their heart rates and arterial oxygen saturations were continuously measured by a pulse oximeter (CANL-425SVA; Med Associates, St. Albans, VT, USA). We also monitored respiration rates of these animals with a custom-made monitoring system (Nagano Electronics, Hitachinaka, Japan). A 20-min transmission scan for attenuation correction was performed using a spiraling ^68Ge-^68Ga point source. Subsequently, list-mode scans were carried out for 90 min. All list-mode data were sorted and Fourier rebinned into two-dimensional sinograms (frames: 4 × 1, 8 × 2, and 14 × 5 min). Images were thereafter reconstructed using two-dimensional filtered back-projection with a 0.5-mm Hanning filter. [^11C]-WAY-100635 was injected via the tail vein as a single bolus at the start of emission scanning. The injected dose of the radiotracer was 85.3 ± 28.6 MBq/rat (mean ± SD).
Anatomical regions of interest (ROIs) were placed on the medial prefrontal cortex (MPFC) and dorsal raphe nucleus (DRN) using PMOD® image software (PMOD Group, Zurich, Switzerland) with reference to the MRI template. Radioligand binding was examined by calculating the binding potential (BP ND; ratio at equilibrium of specifically-bound radioligand to that of nondisplaceable radioligand in tissue) based on a simplified reference tissue model (SRTM) using the cerebellar time-radioactivity curve as reference.
Occupancy of 5-HT1A receptors by E2110 was calculated using the following equation:
RO(%)=BPND,baseline−BPND,drug/BPND,baseline×100 (2)
where BP ND, baseline and BP ND, drug are estimated BP ND at baseline and following drug administration, respectively.
To examine the dose-RO relationship at a single time point, four male SD rats, which had undergone a baseline PET imaging in advance, were scanned with PET at 4 hours after being pretreated with 4 oral doses (0.3, 1, 3, 10 mg/kg) of E2110. In this assay, approximately 250 µL of blood samples were collected from the tail vein upon initiation of the scan for quantification of plasma concentration of E2110. We further examined RO at different time points after the drug administration by conducting PET scans of four male SD rats at 2, 4, 6 or 8 hours after pretreatment with a single oral dose of 1 mg/kg E2110. In addition to this series of PET assays for male rats, pilot PET scans for female rats (n = 3) were carried out at baseline and 4 hours after oral administration of 0.1 mg/kg E2110 to examine whether relationships between plasma concentration of E2110 and RO by this drug in the brain are consistent between two genders. In all experiments, scans for the same individual receiving E2110 were conducted more than 1 week apart.
As described in previous studies on 5-HT1A receptor antagonists the relationship between RO and plasma drug concentration at equilibrium can be described according to the law of mass action by the curvilinear function, based on the assumption that the free brain concentration is equal to free plasma concentration and the free fraction in plasma is not concentration-dependent:
RO(%)=ROmax/Kdapp+CpCp (3)
where ROmax is the maximum occupancy that can be induced by E2110, Kd ^app the apparent equilibrium constant, and Cp the plasma concentration of E2110. This model is analogous to the Emax model:
where Emax (ROmax) is the maximum effect (maximum RO) and EC50 (= Kd) is the E2110 plasma concentration required to produce 50% of Emax. […]

[5] = test system: P-glycoprotein; experiment: Brain-to-plasma ratio in Mdr1a/1b-knockout vs wild-type mice; type: in vivo; conditions: rodents, BBB drug transporter; data not shown

SMILES: CNC(=O)c1ccc2ccn(C3CCN(CCc4c(OC)ccc5c4OC(C)(C)CC5=O)CC3)c2c1.O=C(O)/C=C/C(=O)O [E2110, 1-{1-[2-(7-Methoxy-2,2-dimethyl-4-oxochroman-8-yl)ethyl]piperidine-4-yl}-N-methyl-1H-indole-6-carboxamide fumarate]
- simulated RO at minimum effective doses during micturition monitoring period ([1]; 0.1 mg/kg (8-OH-DPAT model, 1-2 hours postdose) and 0.3 mg/kg (SCL model, 0.5-1 hour postdose)): around 60%
- simulated 5-HT1A RO ([1]; 0.1 mg/kg oral, 1-2 hours after dosing, 8-OH-DPAT treatment): 60-70%
- simulated 5-HT1A RO ([1]; 0.3 mg/kg oral, 0.5-1 hour after dosing, SCL model): 60-80%
- 5-HT1A RO required for significant effects on micturition ([1]; inferred from simulated RO and pharmacological tests): ≥ 60%
- functional character at 5-HT1A receptors [2]: full antagonist
- minimum dose exerting overt therapeutic effects on the micturition reflex ([3]; 8-OH-DPAT model, oral): 0.1 mg/kg
- effect on micturition interval ([3]; oral 0.1-0.3 mg/kg, 8-OH-DPAT-infused female SD rats, 1-2 hr after administration): significantly (p < 0.05) prolonged the micturition intervals
- 5-HT1A RO at high doses ([4]; 3 and 10 mg/kg oral, 4 h, both ROIs (MPFC, DRN)): full occupancy
- EC50 ([4]; DRN, dose-response study, 4 h after oral 0.3-10 mg/kg, male SD rats, Emax model, read-out: EC50 (plasma concentration required for 50% 5-HT1A RO) (converted)): 5.4 nM
- EC50 ([4]; DRN, dose-response study, Emax model, read-out: EC50 (plasma concentration required for 50% 5-HT1A RO) (converted)): 4.36 nM
- EC50 ([4]; DRN, dose-response study, EC50 x unbound fraction in plasma, read-out: free concentration-based EC50 for 5-HT1A RO (converted)): 0.32 nM
- EC50 ([4]; DRN, dose-response study, read-out: free concentration-based EC50 for 5-HT1A RO (converted)): 0.264 nM
- pEC50 ([4]; DRN): 10.49
- free concentration-based EC50 relative to in vitro Ki ([4]; MPFC and DRN, dose-response study): approximately 10 fold
- EC50 ([4]; MPFC, dose-response study, 4 h after oral 0.3-10 mg/kg, male SD rats, Emax model, read-out: EC50 (plasma concentration required for 50% 5-HT1A RO) (converted)): 7.51 nM
- EC50 ([4]; MPFC, dose-response study, Emax model, read-out: EC50 (plasma concentration required for 50% 5-HT1A RO) (converted)): 6.08 nM
- EC50 ([4]; MPFC, dose-response study, EC50 x unbound fraction in plasma, read-out: free concentration-based EC50 for 5-HT1A RO (converted)): 0.45 nM
- EC50 ([4]; MPFC, dose-response study, read-out: free concentration-based EC50 for 5-HT1A RO (converted)): 0.363 nM
- pEC50 ([4]; MPFC): 10.35
- 5-HT1A RO, dose dependence ([4]; single oral doses of 0.3, 1, 3, and 10 mg/kg, each region): dose-dependently induced 5-HT1A RO
- P-glycoprotein substrate status [5]: substrate for the BBB drug transporter P-glycoprotein
